Source: US6358694B1, “Methods of identifying modulators of a prostaglandin receptor” (Merck Frosst Canada & Co., priority 1993, dated 2002)

Assays:
cloned human FP receptor = target: T1, cloned human FP receptor (Homo sapiens, UniProt P43088); experiment: [3H]PGF2α competition binding assay with membranes of pcDNAIamp-hFP transfected COS-M6 cells; settings: for rank order of potency for competition of [3H]PGF2α specific binding: transfected COS-M6 membranes, 0.03 nM-10 μM competitor
T1 construct: A long open reading frame (1077 bp) was determined which would result in a 359 amino acid polypeptide; expressed in transfected cells; host or cells: COS-M6 cells, transient DEAE-dextran transfection with pcDNAIamp-hFP; 100,000 x g membrane fraction
T1 sequence (P43088 whole entry): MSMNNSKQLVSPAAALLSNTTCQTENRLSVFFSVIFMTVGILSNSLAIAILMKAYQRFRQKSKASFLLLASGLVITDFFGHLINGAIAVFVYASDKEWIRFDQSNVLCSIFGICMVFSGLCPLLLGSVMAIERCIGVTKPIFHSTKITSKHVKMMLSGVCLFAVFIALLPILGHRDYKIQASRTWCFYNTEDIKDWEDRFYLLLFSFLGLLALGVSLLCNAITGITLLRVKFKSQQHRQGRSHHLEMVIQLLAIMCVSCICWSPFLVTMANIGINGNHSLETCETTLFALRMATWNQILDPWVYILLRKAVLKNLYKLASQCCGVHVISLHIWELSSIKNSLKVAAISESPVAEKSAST
Method: The recently cloned human prostaglandin F2a (FP) receptor was subcloned into the pcDNA lamp plasmid (Invitrogen) and transfected into COS-M6 cells using the DEAE-dextran method. The cells were maintained in culture for 72 h, then harvested and membranes prepared by differential centrifugation (1000×g for 10 min, then 100,000×g for 30 min) following lysis of the cells by nitrogen cavitation. […] Incubations were conducted for 1 h at room temperature prior to separation of the bound and free radioligand by rapid filtration through Whatman GF/B filters presoaked at 4° C. in washing buffer ([…] (pH 6.0) containing 0.01% bovine serum albumin).

FP receptor [1] = target: T2, FP receptor (Homo sapiens, UniProt P43088); experiment: electrophysiological assay (Ca2+-dependent Cl- current) in pcDNAIamp-FP-injected Xenopus oocytes; assay type: cell-based; settings: perfusion of 10 nM, oocyte voltage clamped at -60 mV
T2 construct: A long open reading frame (1077 bp) was determined which would result in a 359 amino acid polypeptide; expressed in transfected cells; host or cells: Xenopus laevis oocytes (stage 5-6), nuclear injection of 1-5 ng pcDNAIamp-FP plasmid
T2 sequence (P43088 whole entry, the tested form may be a part): as the sequence (P43088 whole entry) above
Method: (§1) Ooctyes were taken from adult females of Xenopus laevis using standard surgical procedure (Colman, A., 1984 In: Transcription and Translation—A Practical Approach, IRL Press). To remove follicle cells, oocytes were treated for 2-3 h with freshly made collagenase (2 mg/ml, type 2, Worthington Biochemical Corp., Freehold, N.J.) in Ca^2+-free ND96 solution (ND96 in mM: NaCl 96, KCl 2, MgCl2 1, HEPES 5, Na-pyruvate 2.5, theophylline 0.5, gentamicin […], +1.8 CaCl2, pH 7.6). Defolliculated stage 5-6 oocytes were selected and maintained in ND96 solution. Ooctye nuclei were injected with 1-5 ng of pcDNAIamp-PP and then incubated at 18° C. for 48 h before challenge with agonist. Functional activity was determined by measurement of either agonist-induced Ca^2+-dependent Cl^− current or light emission in oocytes injected with the Ca^2+-specific photoprotein aequorin (J. Blinks, Friday Harbor Photoproteins, Wash.), (Giladi and Spindel 1991 Biotechniques, 10, pp 744-747). […] Ligand-containing solution was perfused and the current response was recorded. For the luminometric assay, aequorin-loaded oocytes (100 ng/oocyte) were placed individually in cuvettes containing 0.4 ml ND96 and the light emission provoked by ligand addition was recorded using a Bio-Orbit 1251 luminometer (Fisher Sci. Ltd.).

FP receptor [2] = target: T2, FP receptor; experiment: aequorin luminescence assay in pcDNAIamp-FP-injected Xenopus oocytes; assay type: cell-based; settings: aequorin-loaded oocytes, compared to PGE2
Method: as §1

| Structure (SMILES) | rank order of potency for competition of [3H]PGF2α specific binding (cloned human FP receptor) | IC50 (cloned human FP receptor) | agonist-induced Ca2+-dependent Cl- current response (FP receptor [1]) | agonist potency from dose-response of aequorin light emission (FP receptor [2]) |
| --- | --- | --- | --- | --- |
| CC#CCC(C)[C@H](O)/C=C/[C@@H]1[C@H]2C/C(=C/CCCC(=O)O)C[C@H]2C[C@H]1O (some centres unmarked) [iloprost] | PGF2α=fluprostenol>PGD2>>PGE2≈U46619>iloprost | – | – | – |
| CCCCC[C@H](O)/C=C/[C@H]1C(=O)C[C@H](O)[C@@H]1C/C=C\CCCC(=O)O [PGD2] | PGF2α=fluprostenol>PGD2>>PGE2≈U46619>iloprost | – | – | – |
| CCCCC[C@H](O)/C=C/[C@@H]1[C@@H](C/C=C\CCCC(=O)O)[C@H]2CO[C@@H]1C2 [U46619] | PGF2α=fluprostenol>PGD2>>PGE2≈U46619>iloprost | – | – | – |
| CCCCC[C@H](O)/C=C/[C@H]1[C@H](O)CC(=O)[C@@H]1C/C=C\CCCC(=O)O [PGE2] | PGF2α=fluprostenol>PGD2>>PGE2≈U46619>iloprost | – | – | – |
| O=C(O)CCC/C=C\C[C@@H]1[C@@H](/C=C/[C@@H](O)COc2cccc(C(F)(F)F)c2)[C@H](O)C[C@@H]1O (racemic) [fluprostenol] | PGF2α=fluprostenol>PGD2>>PGE2≈U46619>iloprost | 3.5 nM | prominent current responses | more potent agonists |
